From ChEMBL document CHEMBL1141810, “Excavatolides F-M, new briarane diterpenes from the gorgonian Briareum excavatum” (1999)
Values after ≈ are worked out from the molar mass of the structure shown.

Key:
Assay type in all cases: functional
Conditions in all cases: read-out: ED50 (the source's name)
KB = test: Cytotoxicity against human KB cells by MTT assay
P388 = test: Cytotoxicity against mouse P388 cells by MTT assay
HT-29 = test: Cytotoxicity against human HT-29 cells by MTT assay
A549 = test: Cytotoxicity against human A549 cells by MTT assay

| Compound | EC50 (KB) [µg/mL] | EC50 (P388) [µg/mL] | EC50 (HT-29) [µg/mL] | EC50 (A549) [µg/mL] |
| --- | --- | --- | --- | --- |
| CCCC(=O)O[C@H]1C[C@H](OC(C)=O)[C@@]2(C)[C@H]([C@H]1C)[C@@H](OC(C)=O)[C@]13O[C@@]1(C)C(=O)O[C@H]3/C=C(/C)C[C@H](OC(=O)CCC)[C@H]2OC(C)=O [EXCAVATOLIDE H] | > 50 | > 50 | > 50 | > 50 |
| CC(=O)O[C@H]1C[C@H](OC(C)=O)[C@@]2(C)[C@H]([C@H]1C)[C@@H](OC(C)=O)[C@]13O[C@@]1(C)C(=O)O[C@H]3/C=C(/C)CC[C@H]2OC(C)=O [EXCAVATOLIDE G] | > 50 | 15.7 (≈ 28.5 µM) | > 50 | 22.8 (≈ 41.4 µM) |
| CCCC(=O)O[C@H]1C[C@H](OC(C)=O)[C@@]2(C)[C@H]([C@H]1C)[C@@H](OC(C)=O)[C@]13O[C@@]1(C)C(=O)O[C@H]3/C=C(/C)C[C@H](OC(C)=O)[C@H]2OC(C)=O [EXCAVATOLIDE J] | 6.5 (≈ 10.2 µM) | 3.8 (≈ 5.97 µM) | 5.2 (≈ 8.17 µM) | 5.2 (≈ 8.17 µM) |
| CC(=O)O[C@H]1C[C@H](OC(C)=O)[C@@]2(C)[C@H]([C@H]1C)[C@@H](OC(C)=O)[C@]13O[C@@]1(C)C(=O)O[C@H]3/C=C(/C)C[C@H](OC(C)=O)[C@H]2OC(C)=O [EXCAVATOLIDE K] | 3.3 (≈ 5.42 µM) | 0.9 (≈ 1.48 µM) | 1.3 (≈ 2.14 µM) | 3 (≈ 4.93 µM) |
| CC(=O)O[C@H]1C/C(C)=C\[C@@H]2OC(=O)[C@]3(C)O[C@]23[C@H](O)[C@H]2[C@@H](C)[C@@H](O)C[C@H](OC(C)=O)[C@]2(C)[C@@H]1O [EXCAVATOLIDE M] | 1 (≈ 2.07 µM) | 0.001 (≈ 0.00207 µM) | 2.2 (≈ 4.56 µM) | 0.1 (≈ 0.207 µM) |
| CCCC(=O)O[C@H]1C[C@H](OC(C)=O)[C@@]2(C)[C@H]([C@H]1C)[C@@H](OC(C)=O)[C@]13O[C@@]1(C)C(=O)O[C@H]3/C=C(C)\C=C\[C@@H]2OC(C)=O [EXCAVATOLIDE F] | 7 (≈ 12.1 µM) | 6.2 (≈ 10.8 µM) | 5.5 (≈ 9.54 µM) | 5.2 (≈ 9.02 µM) |
| CCCC(=O)O[C@H]1C/C(C)=C\[C@@H]2OC(=O)[C@]3(C)O[C@]23[C@H](OC(C)=O)[C@H]2[C@@H](C)[C@@H](OC(C)=O)C[C@H](OC(C)=O)[C@]2(C)[C@@H]1OC(C)=O [EXCAVATOLIDE I] | > 50 | > 50 | > 50 | > 50 |
